From PubChem BioAssay (NCI)
Several values for one entry are separate records, joined by “and”; a condition that tells them apart may be missing. Equal values may be shown once.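 Exposure lasted 48 hours, with cells grown in 96-well plates and compounds tested at five concentrations. Here, GI50 denotes the concentration required for 50% inhibition of growth. TGI: total growth inhibition.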

Key:
Assay in all cases: NCI-60 cell line screen, 48 h
786-0 renal = system: 786-0 renal
A498 renal = system: A498 renal
A549 NSCLC = system: A549 NSCLC
ACHN renal = system: ACHN renal
BT-549 breast = system: BT-549 breast
CAKI-1 renal = system: CAKI-1 renal
CCRF-CEM leukemia = system: CCRF-CEM leukemia
COLO 205 colon = system: COLO 205 colon
DLD-1 colon = system: DLD-1 colon
DMS 114 small cell lung = system: DMS 114 small cell lung
DMS 273 small cell lung = system: DMS 273 small cell lung
DU-145 prostate = system: DU-145 prostate
EKVX NSCLC = system: EKVX NSCLC
HCC-2998 colon = system: HCC-2998 colon
HCT-116 colon = system: HCT-116 colon
HCT-15 colon = system: HCT-15 colon
HL-60(TB) leukemia = system: HL-60(TB) leukemia
HOP-18 NSCLC = system: HOP-18 NSCLC
HOP-62 NSCLC = system: HOP-62 NSCLC
HOP-92 NSCLC = system: HOP-92 NSCLC
HS 578T breast = system: HS 578T breast
HT29 colon = system: HT29 colon
IGROV1 ovarian = system: IGROV1 ovarian
K-562 leukemia = system: K-562 leukemia
KM12 colon = system: KM12 colon
KM20L2 colon = system: KM20L2 colon
LOX IMVI melanoma = system: LOX IMVI melanoma
LXFL 529 NSCLC = system: LXFL 529 NSCLC
M14 melanoma = system: M14 melanoma
M19-MEL melanoma = system: M19-MEL melanoma
MALME-3M melanoma = system: MALME-3M melanoma
MCF7 breast = system: MCF7 breast
MDA-MB-435 = system: MDA-MB-435
MDA-N = system: MDA-N
MOLT-4 leukemia = system: MOLT-4 leukemia
NCI-H226 lung = system: NCI-H226 lung
NCI-H23 lung = system: NCI-H23 lung
NCI-H460 lung = system: NCI-H460 lung
NCI-H522 lung = system: NCI-H522 lung
NCI/ADR-RES ovarian = system: NCI/ADR-RES ovarian
OVCAR-3 ovarian = system: OVCAR-3 ovarian
OVCAR-4 ovarian = system: OVCAR-4 ovarian
OVCAR-5 ovarian = system: OVCAR-5 ovarian
OVCAR-8 ovarian = system: OVCAR-8 ovarian
PC-3 prostate = system: PC-3 prostate
RPMI-8226 leukemia = system: RPMI-8226 leukemia
RXF 393 renal = system: RXF 393 renal
RXF-631 renal = system: RXF-631 renal
SF-268 CNS = system: SF-268 CNS
SF-295 CNS = system: SF-295 CNS
SF-539 CNS = system: SF-539 CNS
SK-MEL-2 melanoma = system: SK-MEL-2 melanoma
SK-MEL-28 melanoma = system: SK-MEL-28 melanoma
SK-MEL-5 melanoma = system: SK-MEL-5 melanoma
SK-OV-3 ovarian = system: SK-OV-3 ovarian
SN12C renal = system: SN12C renal
SNB-19 CNS = system: SNB-19 CNS
SNB-75 CNS = system: SNB-75 CNS
SR leukemia = system: SR leukemia
SW-620 colon = system: SW-620 colon
T-47D breast = system: T-47D breast
TK-10 renal = system: TK-10 renal
U251 CNS = system: U251 CNS
UACC-257 melanoma = system: UACC-257 melanoma
UACC-62 melanoma = system: UACC-62 melanoma
UO-31 renal = system: UO-31 renal
XF 498 CNS = system: XF 498 CNS
SNB-78 CNS = system: SNB-78 CNS

## CCOC(=O)NC(=O)c1cn(CCCOC(=O)CCCCCCCCC(=O)OCCCn2cc(C(=O)NC(=O)OCC)c(=O)n(C)c2=O)c(=O)n(C)c1=O
786-0 renal
  TGI: > 100 µM
A498 renal
  TGI: > 100000 nM
A549 NSCLC
  TGI: > 100 µM
ACHN renal
  TGI: > 100 µM
BT-549 breast
  TGI: > 100 µM
CAKI-1 renal
  TGI: > 100 µM
CCRF-CEM leukemia
  TGI: > 46.4 µM
COLO 205 colon
  TGI: > 100000 nM
DLD-1 colon
  TGI: > 100 µM
DMS 114 small cell lung
  TGI: > 100000 nM
DMS 273 small cell lung
  TGI: > 100000 nM
DU-145 prostate
  TGI: > 100 µM
EKVX NSCLC
  TGI: > 100 µM
HCC-2998 colon
  TGI: > 100000 nM
HCT-116 colon
  TGI: > 100000 nM
HCT-15 colon
  TGI: > 100000 nM
HL-60(TB) leukemia
  TGI: > 100 µM
HOP-18 NSCLC
  TGI: > 100 µM
HOP-62 NSCLC
  TGI: > 96.6 µM
HOP-92 NSCLC
  TGI: > 100 µM
HS 578T breast
  TGI: > 100 µM
HT29 colon
  TGI: > 100000 nM
IGROV1 ovarian
  TGI: > 100 µM
K-562 leukemia
  TGI: > 100 µM
KM12 colon
  TGI: > 100000 nM
KM20L2 colon
  TGI: > 100000 nM
LOX IMVI melanoma
  TGI: > 100 µM
LXFL 529 NSCLC
  TGI: > 100 µM
M14 melanoma
  TGI: > 100 µM
M19-MEL melanoma
  TGI: > 100 µM
MALME-3M melanoma
  TGI: > 100 µM
MCF7 breast
  TGI: > 100 µM
MDA-MB-435
  TGI: > 100 µM
MDA-N
  TGI: > 100 µM
MOLT-4 leukemia
  TGI: > 100 µM
NCI-H226 lung
  TGI: > 100000 nM
NCI-H23 lung
  TGI: > 100000 nM
NCI-H460 lung
  TGI: > 100 µM
NCI-H522 lung
  TGI: > 100000 nM
NCI/ADR-RES ovarian
  TGI: > 100 µM
OVCAR-3 ovarian
  TGI: > 100000 nM
OVCAR-4 ovarian
  TGI: > 100 µM
OVCAR-5 ovarian
  TGI: > 100 µM
OVCAR-8 ovarian
  TGI: > 100 µM
PC-3 prostate
  TGI: > 100 µM
RPMI-8226 leukemia
  TGI: > 100 µM
RXF 393 renal
  TGI: > 100000 nM
RXF-631 renal
  TGI: > 100000 nM
SF-268 CNS
  TGI: > 100 µM
SF-295 CNS
  TGI: > 100 µM
SF-539 CNS
  TGI: > 100000 nM
SK-MEL-2 melanoma
  TGI: > 100000 nM
SK-MEL-28 melanoma
  TGI: > 100 µM
SK-MEL-5 melanoma
  TGI: > 100 µM
SK-OV-3 ovarian
  TGI: > 100 µM
SN12C renal
  TGI: > 100 µM
SNB-19 CNS
  TGI: > 100 µM
SNB-75 CNS
  TGI: > 77800 nM
SR leukemia
  TGI: > 100 µM
SW-620 colon
  TGI: > 100 µM
T-47D breast
  TGI: > 100 µM
TK-10 renal
  TGI: > 100 µM
U251 CNS
  TGI: > 100000 nM
UACC-257 melanoma
  TGI: > 100 µM
UACC-62 melanoma
  TGI: > 100000 nM
UO-31 renal
  TGI: > 100 µM
XF 498 CNS
  TGI: > 93800 nM

## COc1cc(CN[C@H]2CCc3cc(OC)c(OC)c(OC)c3-c3ccc(SC)c(=O)cc32)cc(OC)c1
786-0 renal
  GI50: 30.7 nM
  TGI: 30.8 µM
A498 renal
  TGI: 167 nM
A549 NSCLC
  TGI: > 100 µM
ACHN renal
  GI50: 66.2 nM
  TGI: > 100 µM
CAKI-1 renal
  GI50: 28.2 nM
  TGI: > 100 µM
COLO 205 colon
  GI50: 14.5 nM
  TGI: 105 nM and 81.6 nM
DLD-1 colon
  GI50: 23.2 nM
  TGI: > 100 µM
DMS 114 small cell lung
  GI50: 16.6 nM
  TGI: 50.5 nM and 61.3 nM
DMS 273 small cell lung
  GI50: < 10 nM
  TGI: 140 nM
EKVX NSCLC
  GI50: 28.7 nM
  TGI: > 100 µM
HCC-2998 colon
  GI50: 20.4 nM
  TGI: 108 nM and 74.8 nM
HCT-116 colon
  GI50: < 10 nM
  TGI: 174 nM and 127 nM
HCT-15 colon
  TGI: 239 nM
HL-60(TB) leukemia
  GI50: 24 nM
  TGI: > 100 µM
HOP-18 NSCLC
  GI50: > 100 µM
  TGI: > 100 µM
HOP-62 NSCLC
  GI50: 81.4 nM
  TGI: > 100 µM
HOP-92 NSCLC
  GI50: 207 nM
  TGI: 68.7 µM
HT29 colon
  GI50: < 10 nM
  TGI: 62.7 nM and 25.1 nM
IGROV1 ovarian
  GI50: 69 nM
  TGI: > 100 µM
K-562 leukemia
  TGI: 10.4 µM
KM12 colon
  GI50: < 10 nM
  TGI: 482 nM and 137 nM
KM20L2 colon
  GI50: 13 nM
  TGI: 42.5 nM and 30.7 nM
LOX IMVI melanoma
  GI50: 17.3 nM
LXFL 529 NSCLC
  GI50: 21.4 nM
  TGI: > 100 µM
MALME-3M melanoma
  GI50: < 10 nM
  TGI: > 100 µM
MOLT-4 leukemia
  GI50: 47.6 nM
  TGI: 85.5 µM
NCI-H226 lung
  GI50: 23.1 nM
  TGI: 95 nM and 91.9 nM
NCI-H23 lung
  GI50: 22.8 nM
  TGI: 78.6 nM and 492 nM
NCI-H460 lung
  GI50: 31 nM
NCI-H522 lung
  GI50: 21.2 nM
  TGI: 67.7 nM and 52 nM
OVCAR-3 ovarian
  GI50: 14.5 nM
  TGI: 127 nM and 44.4 nM
OVCAR-4 ovarian
  TGI: > 100 µM
OVCAR-5 ovarian
  GI50: > 100 µM
  TGI: > 100 µM
OVCAR-8 ovarian
  GI50: 40 nM
  TGI: 31.8 µM
RPMI-8226 leukemia
  TGI: 24.2 µM
RXF 393 renal
  TGI: 37.2 nM
RXF-631 renal
  TGI: 358 nM
SF-268 CNS
  GI50: 24.8 nM
SF-295 CNS
  GI50: 18.7 nM
SF-539 CNS
  GI50: 17.3 nM
  TGI: 45.5 nM and 42.4 nM
SK-MEL-2 melanoma
  GI50: 18.4 nM
  TGI: 474 nM
SK-MEL-28 melanoma
  GI50: < 10 nM
  TGI: > 100 µM
SK-OV-3 ovarian
  GI50: 17.1 nM
SN12C renal
  GI50: 62.3 nM
  TGI: > 100 µM
SNB-19 CNS
  TGI: > 100 µM
SNB-75 CNS
  TGI: 64.1 nM
SNB-78 CNS
  GI50: < 10 nM
  TGI: > 100 µM
SR leukemia
  TGI: 19.4 µM
SW-620 colon
  GI50: < 10 nM
  TGI: > 100 µM
TK-10 renal
  GI50: 41.2 nM
  TGI: 77.1 µM
U251 CNS
  GI50: 24.7 nM
  TGI: 87.3 nM and 63.5 nM
UACC-257 melanoma
  GI50: 103 nM
  TGI: > 100 µM
UACC-62 melanoma
  TGI: 60.5 nM
XF 498 CNS
  TGI: 977 nM
